Assay results taken from paper PMC8149661, “Small-molecule inhibition of Lats kinases may promote Yap-dependent proliferation in postmitotic mammalian tissues” (Nature Communications, 2021).

Experiments:
Assay in all cases: biochemical
[1] = molecular target: DYRK1B (Homo sapiens, UniProt Q9Y463); conditions: read-out: % inhibition
[2] = molecular target: T1, ROCK1 (Homo sapiens, UniProt Q13464); conditions: read-out: % inhibition
[3] = molecular target: TAOK1 (Homo sapiens, UniProt Q7L7X3); conditions: read-out: % inhibition
TAOK1, sequence (Q7L7X3 whole entry): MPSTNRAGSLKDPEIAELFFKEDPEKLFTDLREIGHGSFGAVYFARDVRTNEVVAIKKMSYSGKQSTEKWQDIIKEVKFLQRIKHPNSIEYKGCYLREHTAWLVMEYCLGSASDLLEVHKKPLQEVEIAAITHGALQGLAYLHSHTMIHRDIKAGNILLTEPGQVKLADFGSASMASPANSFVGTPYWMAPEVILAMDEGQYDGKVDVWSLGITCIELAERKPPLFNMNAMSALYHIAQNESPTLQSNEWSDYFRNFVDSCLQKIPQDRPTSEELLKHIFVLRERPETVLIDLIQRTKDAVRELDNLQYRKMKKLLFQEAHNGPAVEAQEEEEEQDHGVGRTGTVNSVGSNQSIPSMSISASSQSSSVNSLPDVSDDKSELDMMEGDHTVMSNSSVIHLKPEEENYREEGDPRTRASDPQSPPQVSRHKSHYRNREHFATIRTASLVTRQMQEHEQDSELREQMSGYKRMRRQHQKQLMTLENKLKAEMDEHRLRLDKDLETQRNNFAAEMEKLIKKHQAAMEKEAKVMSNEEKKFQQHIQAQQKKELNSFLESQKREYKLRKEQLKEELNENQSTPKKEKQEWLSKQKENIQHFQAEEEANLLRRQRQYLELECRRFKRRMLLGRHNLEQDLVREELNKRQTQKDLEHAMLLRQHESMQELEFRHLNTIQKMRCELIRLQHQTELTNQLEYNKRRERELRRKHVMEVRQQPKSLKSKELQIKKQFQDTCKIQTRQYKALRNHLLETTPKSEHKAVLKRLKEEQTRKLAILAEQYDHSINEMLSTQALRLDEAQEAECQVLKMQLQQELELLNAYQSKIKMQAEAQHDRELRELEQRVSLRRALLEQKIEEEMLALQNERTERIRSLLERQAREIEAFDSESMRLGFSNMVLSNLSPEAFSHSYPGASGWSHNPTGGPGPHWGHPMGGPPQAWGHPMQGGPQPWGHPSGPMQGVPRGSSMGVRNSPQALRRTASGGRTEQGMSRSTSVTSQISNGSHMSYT

[4] = molecular target: PRKCQ (Homo sapiens, UniProt Q04759); conditions: read-out: % inhibition
[5] = molecular target: PASK (Homo sapiens, UniProt Q96RG2); conditions: read-out: % inhibition
[6] = molecular target: CDK8 (Homo sapiens, UniProt P49336); conditions: read-out: % inhibition
[7] = molecular target: PRKCD (Homo sapiens, UniProt Q05655); conditions: read-out: % inhibition
[8] = molecular target: PKN2 (Homo sapiens, UniProt Q16513); conditions: read-out: % inhibition
[9] = molecular target: PRKACB (Homo sapiens, UniProt P22694); conditions: read-out: % inhibition
[10] = molecular target: LRRK2 (Homo sapiens, UniProt Q5S007); conditions: read-out: % inhibition
[11] = molecular target: BMP2K (Homo sapiens, UniProt Q9NSY1); conditions: read-out: % inhibition
[12] = molecular target: HIPK1 (Homo sapiens, UniProt Q86Z02); conditions: read-out: % inhibition
[13] = molecular target: PRKG2 (Homo sapiens, UniProt Q13237); conditions: read-out: % inhibition
[14] = molecular target: HIPK3 (Homo sapiens, UniProt Q9H422); conditions: read-out: % inhibition
[15] = molecular target: DMPK (Homo sapiens, UniProt Q09013); conditions: read-out: % inhibition
[16] = molecular target: DYRK1A (Homo sapiens, UniProt Q13627); conditions: read-out: % inhibition
[17] = molecular target: GSK3B (Homo sapiens, UniProt P49841); conditions: read-out: % inhibition
[18] = molecular target: PRKCH (Homo sapiens, UniProt P24723); conditions: read-out: % inhibition
[19] = molecular target: HIPK2 (Homo sapiens, UniProt Q9H2X6); conditions: read-out: % inhibition
[20] = molecular target: PAK4 (Homo sapiens, UniProt O96013); conditions: read-out: % inhibition
[21] = molecular target: ROCK2 (Homo sapiens, UniProt O75116); conditions: read-out: % inhibition
[22] = molecular target: CLK1 (Homo sapiens, UniProt P49759); conditions: read-out: % inhibition
[23] = molecular target: CDC42BPA (Homo sapiens, UniProt Q5VT25); conditions: read-out: % inhibition
[24] = molecular target: DAPK3 (Homo sapiens, UniProt O43293); conditions: read-out: % inhibition
DAPK3, sequence (O43293 whole entry): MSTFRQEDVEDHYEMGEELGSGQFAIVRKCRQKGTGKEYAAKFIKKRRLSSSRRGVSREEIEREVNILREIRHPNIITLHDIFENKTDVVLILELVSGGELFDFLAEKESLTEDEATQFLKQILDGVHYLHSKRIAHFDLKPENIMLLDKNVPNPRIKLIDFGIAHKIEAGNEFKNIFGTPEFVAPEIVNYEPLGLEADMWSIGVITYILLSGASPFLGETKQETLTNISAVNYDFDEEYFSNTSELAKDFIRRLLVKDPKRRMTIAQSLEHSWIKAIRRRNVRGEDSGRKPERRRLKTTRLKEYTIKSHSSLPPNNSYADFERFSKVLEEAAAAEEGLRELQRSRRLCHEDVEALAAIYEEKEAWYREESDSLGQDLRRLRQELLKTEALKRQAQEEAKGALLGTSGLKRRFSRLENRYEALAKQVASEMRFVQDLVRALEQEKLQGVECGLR

[25] = molecular target: CLK2 (Homo sapiens, UniProt P49760); conditions: read-out: % inhibition
[26] = molecular target: PRKX (Homo sapiens, UniProt P51817); conditions: read-out: % inhibition
PRKX, sequence (P51817 whole entry): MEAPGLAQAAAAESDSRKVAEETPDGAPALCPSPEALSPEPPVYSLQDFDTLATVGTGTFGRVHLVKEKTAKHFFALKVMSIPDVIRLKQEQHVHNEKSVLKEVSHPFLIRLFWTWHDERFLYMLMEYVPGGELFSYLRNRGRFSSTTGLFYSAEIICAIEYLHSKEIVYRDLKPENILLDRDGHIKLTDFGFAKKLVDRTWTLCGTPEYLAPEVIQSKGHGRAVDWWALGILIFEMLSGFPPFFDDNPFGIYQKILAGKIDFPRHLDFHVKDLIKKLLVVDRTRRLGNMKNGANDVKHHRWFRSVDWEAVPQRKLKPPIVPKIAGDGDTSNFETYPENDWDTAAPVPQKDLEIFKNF

[27] = molecular target: MAP3K7 (Homo sapiens, UniProt O43318); conditions: read-out: % inhibition
MAP3K7, sequence (O43318 whole entry): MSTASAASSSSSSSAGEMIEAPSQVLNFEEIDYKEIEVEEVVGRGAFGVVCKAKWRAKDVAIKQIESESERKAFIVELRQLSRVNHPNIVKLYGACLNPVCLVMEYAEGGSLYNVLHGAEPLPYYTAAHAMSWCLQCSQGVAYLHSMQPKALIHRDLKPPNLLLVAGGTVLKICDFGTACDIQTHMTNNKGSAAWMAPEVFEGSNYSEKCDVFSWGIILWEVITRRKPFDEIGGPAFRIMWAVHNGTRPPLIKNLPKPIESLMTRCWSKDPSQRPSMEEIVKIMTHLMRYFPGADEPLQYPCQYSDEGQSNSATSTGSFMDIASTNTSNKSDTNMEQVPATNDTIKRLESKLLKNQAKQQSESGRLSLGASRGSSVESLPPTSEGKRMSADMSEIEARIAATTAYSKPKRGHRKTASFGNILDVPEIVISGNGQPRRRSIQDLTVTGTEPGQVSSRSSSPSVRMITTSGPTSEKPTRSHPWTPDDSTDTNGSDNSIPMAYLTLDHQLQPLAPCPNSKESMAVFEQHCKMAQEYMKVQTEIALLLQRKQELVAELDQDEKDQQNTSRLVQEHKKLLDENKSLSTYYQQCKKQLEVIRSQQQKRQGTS

[28] = molecular target: TGFBR2 (Homo sapiens, UniProt P37173); conditions: read-out: % inhibition
[29] = molecular target: CLK4 (Homo sapiens, UniProt Q9HAZ1); conditions: read-out: % inhibition
CLK4, sequence (Q9HAZ1 whole entry): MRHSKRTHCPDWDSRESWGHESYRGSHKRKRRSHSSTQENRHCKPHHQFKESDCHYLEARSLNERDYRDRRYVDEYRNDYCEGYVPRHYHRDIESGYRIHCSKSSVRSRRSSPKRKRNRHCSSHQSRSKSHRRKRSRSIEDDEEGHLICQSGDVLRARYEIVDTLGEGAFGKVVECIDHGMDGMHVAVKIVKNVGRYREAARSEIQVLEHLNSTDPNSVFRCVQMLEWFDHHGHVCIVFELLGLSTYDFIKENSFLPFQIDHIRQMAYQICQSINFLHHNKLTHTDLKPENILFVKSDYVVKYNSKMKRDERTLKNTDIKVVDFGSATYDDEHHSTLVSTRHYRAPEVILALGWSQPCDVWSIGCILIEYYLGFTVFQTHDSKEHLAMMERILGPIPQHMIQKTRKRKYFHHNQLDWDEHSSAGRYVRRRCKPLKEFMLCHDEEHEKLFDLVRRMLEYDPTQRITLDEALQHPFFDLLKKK

[30] = molecular target: CDK19 (Homo sapiens, UniProt Q9BWU1); conditions: read-out: % inhibition
[31] = molecular target: MAP4K4 (Homo sapiens, UniProt O95819); conditions: read-out: % inhibition
[32] = molecular target: CDC42BPG (Homo sapiens, UniProt Q6DT37); conditions: read-out: % inhibition
[33] = molecular target: PKN1 (Homo sapiens, UniProt Q16512); conditions: read-out: % inhibition
[34] = molecular target: CDC7 (Homo sapiens, UniProt O00311); conditions: read-out: % inhibition
[35] = molecular target: T2, PKA (Homo sapiens, UniProt P17612); set-up: functional kinase inhibition IC50 (Reaction Biology)
T2 construct: gene PRKACA

[36] = molecular target: T1, ROCK1; set-up: functional kinase inhibition IC50 (Reaction Biology)
[37] = molecular target: T3, NDR1 (Homo sapiens, UniProt Q15208); set-up: functional kinase inhibition IC50 (Reaction Biology)
T3 construct: gene STK38

[38] = molecular target: T4, PKCepsilon (Homo sapiens, UniProt Q02156); set-up: functional kinase inhibition IC50 (Reaction Biology)
T4 construct: gene PRKCE
T4 sequence (Q02156 whole entry): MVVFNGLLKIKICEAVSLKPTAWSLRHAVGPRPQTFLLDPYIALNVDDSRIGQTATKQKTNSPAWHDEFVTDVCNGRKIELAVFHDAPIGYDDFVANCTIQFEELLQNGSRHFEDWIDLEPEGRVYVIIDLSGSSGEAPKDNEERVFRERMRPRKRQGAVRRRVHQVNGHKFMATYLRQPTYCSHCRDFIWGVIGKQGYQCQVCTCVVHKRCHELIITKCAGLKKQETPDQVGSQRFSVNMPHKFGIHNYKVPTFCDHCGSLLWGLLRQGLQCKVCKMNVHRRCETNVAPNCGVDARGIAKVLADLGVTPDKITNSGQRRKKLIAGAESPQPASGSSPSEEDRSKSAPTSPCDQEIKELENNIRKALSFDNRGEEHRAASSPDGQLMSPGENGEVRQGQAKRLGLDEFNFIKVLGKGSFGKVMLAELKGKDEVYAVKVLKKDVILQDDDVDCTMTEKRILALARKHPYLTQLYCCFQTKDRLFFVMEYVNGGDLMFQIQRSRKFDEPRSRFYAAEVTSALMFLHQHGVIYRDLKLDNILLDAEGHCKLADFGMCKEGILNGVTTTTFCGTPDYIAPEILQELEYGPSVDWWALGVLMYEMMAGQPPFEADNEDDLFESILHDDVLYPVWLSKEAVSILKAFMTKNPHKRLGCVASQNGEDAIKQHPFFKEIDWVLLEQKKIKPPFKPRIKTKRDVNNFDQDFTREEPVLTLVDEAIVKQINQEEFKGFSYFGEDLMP

T1 sequence (Q13464 whole entry): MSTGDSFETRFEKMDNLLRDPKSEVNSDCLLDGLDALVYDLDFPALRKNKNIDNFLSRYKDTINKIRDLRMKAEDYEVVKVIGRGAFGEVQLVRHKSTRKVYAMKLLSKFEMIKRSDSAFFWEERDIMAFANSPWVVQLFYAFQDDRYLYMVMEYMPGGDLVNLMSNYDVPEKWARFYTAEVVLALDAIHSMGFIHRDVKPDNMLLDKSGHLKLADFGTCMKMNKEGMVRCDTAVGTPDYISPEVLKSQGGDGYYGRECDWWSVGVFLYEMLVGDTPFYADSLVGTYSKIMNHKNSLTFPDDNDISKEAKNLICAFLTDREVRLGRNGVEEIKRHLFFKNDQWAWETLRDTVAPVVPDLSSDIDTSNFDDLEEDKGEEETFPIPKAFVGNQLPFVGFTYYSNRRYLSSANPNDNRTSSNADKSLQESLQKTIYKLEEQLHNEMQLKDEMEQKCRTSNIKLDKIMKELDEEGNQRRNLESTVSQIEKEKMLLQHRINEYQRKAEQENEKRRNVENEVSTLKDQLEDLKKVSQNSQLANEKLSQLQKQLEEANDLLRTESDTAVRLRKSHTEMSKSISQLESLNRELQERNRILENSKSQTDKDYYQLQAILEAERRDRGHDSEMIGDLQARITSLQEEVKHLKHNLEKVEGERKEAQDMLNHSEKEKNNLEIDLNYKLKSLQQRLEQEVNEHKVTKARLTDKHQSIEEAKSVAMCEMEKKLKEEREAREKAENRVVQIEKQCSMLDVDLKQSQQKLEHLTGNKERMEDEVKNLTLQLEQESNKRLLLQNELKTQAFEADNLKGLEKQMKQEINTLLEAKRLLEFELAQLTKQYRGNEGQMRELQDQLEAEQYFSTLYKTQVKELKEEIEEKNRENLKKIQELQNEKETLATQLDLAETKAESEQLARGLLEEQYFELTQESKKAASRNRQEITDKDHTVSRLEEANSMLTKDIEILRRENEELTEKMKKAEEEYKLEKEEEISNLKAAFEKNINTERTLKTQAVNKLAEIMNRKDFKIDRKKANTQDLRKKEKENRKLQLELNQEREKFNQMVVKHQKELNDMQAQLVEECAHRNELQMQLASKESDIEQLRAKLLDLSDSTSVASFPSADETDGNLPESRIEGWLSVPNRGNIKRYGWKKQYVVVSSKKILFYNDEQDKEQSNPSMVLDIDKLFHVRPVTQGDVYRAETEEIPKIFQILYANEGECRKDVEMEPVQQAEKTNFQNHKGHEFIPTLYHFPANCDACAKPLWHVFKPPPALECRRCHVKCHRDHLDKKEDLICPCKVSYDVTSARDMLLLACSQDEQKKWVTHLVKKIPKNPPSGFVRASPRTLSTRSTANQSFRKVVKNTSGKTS

- inhibition at 1 µM [1]: 81.5%
- inhibition at 1 µM [2]: 79.2%
- inhibition at 1 µM [3]: 76.4%
- inhibition at 1 µM [4]: 99.2%
- inhibition at 1 µM [5]: 85.8%
- inhibition at 1 µM [6]: 88.8%
- inhibition at 1 µM [7]: 78%
- inhibition at 1 µM [8]: 89.7%
- inhibition at 1 µM [9]: 92.9%
- inhibition at 1 µM [10]: 81.3%
- inhibition at 1 µM [11]: 86.3%
- inhibition at 1 µM [12]: 86.1%
- inhibition at 1 µM [13]: 79.1%
- inhibition at 1 µM [14]: 95.8%
- inhibition at 1 µM [15]: 97.9%
- inhibition at 1 µM [16]: 85.8%
- inhibition at 1 µM [17]: 92.7%
- inhibition at 1 µM [18]: 90.4%
- inhibition at 1 µM [19]: 94.2%
- inhibition at 1 µM [20]: 83.4%
- inhibition at 1 µM [21]: 84.1%
- inhibition at 1 µM [22]: 78.1%
- inhibition at 1 µM [23]: 97.2%
- inhibition at 1 µM [24]: 77.1%
- inhibition at 1 µM [25]: 92.8%
- inhibition at 1 µM [26]: 88.1%
- inhibition at 1 µM [27]: 74%
- inhibition at 1 µM [28]: 81.3%
- inhibition at 1 µM [29]: 102%
- inhibition at 1 µM [30]: 90.2%
- inhibition at 1 µM [31]: 77.5%
- inhibition at 1 µM [32]: 83.7%
- inhibition at 1 µM [33]: 77.7%
- inhibition at 1 µM [34]: 99.1%
- IC50 [35]: 60 nM
- IC50 [36]: 88 nM
- IC50 [37]: 1000 nM
- IC50 [38]: 14 nM
Compound: O=C(N=c1sccn1Cc1ccccc1)c1c[nH]c2ncccc12 [TRULI, N-(3-benzylthiazol-2(3H)-ylidene)-1H-pyrrolo[2,3-b]pyridine-3-carboxamide]
